From US9302999B2, “Substituted triazoles as herbicides” (E. I. DU PONT DE NEMOURS AND COMPANY, priority 2012, dated 2016)

Legend:
[1] = system: wheat (Triticum aestivum); assay: Test A pre-/postemergence: wheat; assay type: in vivo; conditions: for Wheat plant response rating: visual rating on 0 to 100 scale (0 no effect, 100 complete control), approximately ten days
How it was run: (§1)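 Injury is scored visually on a scale where 0 means no effect and 100 complete control, comparing treated with untreated plants after approximately ten greenhouse days. Both preemergence and postemergence applications are made at the same time.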

[2] = system: nutsedge, yellow (yellow nutsedge, Cyperus esculentus); assay: Test C pre-/postemergence: nutsedge, yellow; assay type: in vivo
How it was run: (§2)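 Visual injury scored 0–100 (100 = complete control) against untreated controls after 13–15 greenhouse days. Surfactant-containing solvent formulations applied either to soil after sowing (loam/sand) or over 1- to 4-leaf plants, 2–18 cm tall.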

[3] = system: foxtail, giant (giant foxtail, Setaria faberii); assay: Test A pre-/postemergence: foxtail, giant; assay type: in vivo; conditions: for Foxtail, Giant plant response rating: visual rating on 0 to 100 scale (0 no effect, 100 complete control), approximately ten days
How it was run: as §1

[4] = system: foxtail, giant (giant foxtail, Setaria faberii); assay: Test C pre-/postemergence: foxtail, giant; assay type: in vivo
How it was run: as §2

[5] = system: Waterhemp; assay: Test C postemergence: waterhemp; assay type: in vivo
Excerpt: At the same time, plants selected from these crop and weed species and also barley (winter barley, Hordeum vulgare), canarygrass (Phalaris minor), chickweed (common chickweed, Stellaria media) windgrass (Apera spica-venti) and deadnettle (henbit deadnettle, Lamium amplexicaule) were planted in pots containing Redi-Earth® planting medium (Scotts Company, 14111 Scottslawn Road, Marysville, Ohio 43041) comprising spaghnum peat moss, vermiculite, wetting agent and starter nutrients and treated with postemergence applications of test chemicals formulated in the same manner. Plants ranged in height from 2 to 18 cm (1- to 4-leaf stage) for postemergence treatments.
Treated plants and controls were maintained in a greenhouse for 13 to 15 days, after which time all species were compared to controls and visually evaluated. Plant response ratings, summarized in Table C, are based on a scale of 0 to 100 where 0 is no effect and 100 is complete control. A dash (-) response means no test result.

[6] = system: Oilseed Rape; assay: Test C preemergence: oilseed rape; assay type: in vivo, Brassica napus; conditions: 125 g ai/ha, scale 0 to 100, 0 no effect, 100 complete control
[7] = system: crabgrass, large (large crabgrass, Digitaria sanguinalis); assay: Test A pre-/postemergence: crabgrass, large; assay type: in vivo; conditions: for Crabgrass, Large plant response rating: visual rating on 0 to 100 scale (0 no effect, 100 complete control), approximately ten days
How it was run: as §1

[8] = system: soybean (Glycine max); assay: Test C pre-/postemergence: soybean; assay type: in vivo
How it was run: as §2

[9] = system: pigweed (Amaranthus retroflexus); assay: Test A pre-/postemergence: pigweed; assay type: in vivo; conditions: for Pigweed plant response rating: visual rating on 0 to 100 scale (0 no effect, 100 complete control), approximately ten days
How it was run: as §1

[10] = system: pigweed (Amaranthus retroflexus); assay: Test C pre-/postemergence: pigweed; assay type: in vivo
How it was run: as §2

[11] = system: wild oat (Avena fatua); assay: Test C pre-/postemergence: wild oat; assay type: in vivo; conditions: Postemergence
How it was run: as §2

[12] = Postemergence, 125 g ai/ha, 0 to 100 scale, 0 is no effect, 100 is complete control
[13] = Preemergence, 125 g ai/ha, 0 to 100 scale where 0 is no effect and 100 is complete control
[14] = Preemergence, 500 g ai/ha, 0 to 100 scale (0 no effect, 100 complete control)
[15] = Postemergence, 31 g ai/ha, scale 0 to 100 (0 no effect, 100 complete control)
[16] = Postemergence, 62 g ai/ha, scale 0 to 100 (0 no effect, 100 complete control)
[17] = Postemergence, 125 g ai/ha, scale 0 to 100, 0 no effect, 100 complete control
[18] = Postemergence, 250 g ai/ha, scale 0 to 100
[19] = Preemergence, 31 g ai/ha, scale of 0 to 100, 0 is no effect, 100 is complete control
[20] = Preemergence, 62 g ai/ha, scale of 0 to 100, 0 is no effect, 100 is complete control
[21] = Preemergence, 125 g ai/ha, scale 0 to 100, 0 no effect, 100 complete control
[22] = Preemergence, 250 g ai/ha, scale 0 to 100, 0 no effect, 100 complete control
[23] = 31 g ai/ha, scale 0 to 100 (0 no effect, 100 complete control)
[24] = 62 g ai/ha, scale 0 to 100 (0 no effect, 100 complete control)
[25] = 125 g ai/ha, scale 0 to 100, 0 no effect, 100 complete control

CCc1nn(-c2ccc(C(F)(F)F)cc2)nc1Cc1ccnc(C(F)(F)F)c1 [Compound 155]
5: Plant response rating, Nutsedge, Yellow [2, 15]
50: Plant response rating, Soybean [8, 15]
0: Plant response rating, Nutsedge, Yellow [2, 19] | Plant response rating, Soybean [8, 19]
70: Plant response rating, Wheat [1, 14]
90: Plant response rating, Foxtail, Giant [3, 12] | Plant response rating, Oilseed Rape [6] | Plant response rating, Pigweed [10, 15] | Plant response rating, Pigweed [10, 16] | Plant response rating, Oat, Wild ([11]; 250 g ai/ha, scale 0 to 100)
100: Foxtail, Giant plant response rating ([3]; Postemergence, 500 g ai/ha) | Plant response rating, Foxtail, Giant [3, 13] | Plant response rating, Foxtail, Giant [3, 14] | Plant response rating, Foxtail, Giant [4, 18] | Plant response rating, Foxtail, Giant [4, 19] | Plant response rating, Foxtail, Giant [4, 20] | Plant response rating, Foxtail, Giant [4, 21] | Plant response rating, Foxtail, Giant [4, 22] | Plant response rating, Crabgrass, Large [7, 12] | Crabgrass, Large plant response rating ([7]; Postemergence, 500 g ai/ha) | Plant response rating, Crabgrass, Large [7, 13] | Plant response rating, Crabgrass, Large [7, 14] | Plant response rating, Pigweed [9, 12] | Pigweed plant response rating ([9]; Postemergence, 500 g ai/ha) | Plant response rating, Pigweed [9, 13] | Plant response rating, Pigweed [9, 14] | Plant response rating, Pigweed [10, 18] | Plant response rating, Pigweed [10, 19] | Plant response rating, Pigweed [10, 20] | Plant response rating, Pigweed [10, 21] | Plant response rating, Pigweed [10, 22]
98: Plant response rating, Waterhemp [5, 23] | Plant response rating, Waterhemp [5, 24] | Plant response rating, Waterhemp ([5]; 250 g ai/ha, scale 0 to 100) | Plant response rating, Pigweed [10, 17]
20: Plant response rating, Nutsedge, Yellow [2, 18]
15: Plant response rating, Foxtail, Giant [4, 15]
35: Plant response rating, Soybean [8, 20] | Plant response rating, Soybean [8, 21]
10: Plant response rating, Wheat [1, 13] | Plant response rating, Nutsedge, Yellow [2, 16] | Plant response rating, Nutsedge, Yellow [2, 17]
40: Plant response rating, Wheat [1, 12] | Plant response rating, Soybean [8, 22] | Plant response rating, Oat, Wild [11, 23]
45: Plant response rating, Foxtail, Giant [4, 16] | Plant response rating, Oat, Wild [11, 24]
80: Wheat plant response rating ([1]; Postemergence, 500 g ai/ha) | Plant response rating, Soybean [8, 17] | Plant response rating, Soybean [8, 18]
75: Plant response rating, Foxtail, Giant [4, 17] | Plant response rating, Soybean [8, 16] | Plant response rating, Oat, Wild [11, 25]

Cc1nn(-c2ccc(F)c(C(F)(F)F)c2)nc1Cc1ccnc(C(F)(F)F)c1 [Compound 156]
95: Plant response rating, Foxtail, Giant [4, 22] | Plant response rating, Soybean [8, 17] | Plant response rating, Soybean [8, 18] | Plant response rating, Pigweed [10, 17]
20: Plant response rating, Wheat [1, 13]
15: Plant response rating, Foxtail, Giant [4, 16]
90: Plant response rating, Foxtail, Giant [3, 12] | Plant response rating, Foxtail, Giant [4, 19] | Plant response rating, Foxtail, Giant [4, 20] | Plant response rating, Foxtail, Giant [4, 21] | Plant response rating, Oilseed Rape [6] | Plant response rating, Pigweed [10, 16]
80: Plant response rating, Wheat [1, 14] | Plant response rating, Soybean [8, 16]
35: Plant response rating, Oat, Wild [11, 23]
50: Plant response rating, Foxtail, Giant [4, 18] | Plant response rating, Oat, Wild [11, 24] | Plant response rating, Oat, Wild [11, 25]
75: Plant response rating, Pigweed [10, 15]
40: Plant response rating, Wheat [1, 12]
5: Plant response rating, Nutsedge, Yellow [2, 15] | Plant response rating, Soybean [8, 19]
55: Plant response rating, Soybean [8, 15]
100: Foxtail, Giant plant response rating ([3]; Postemergence, 500 g ai/ha) | Plant response rating, Foxtail, Giant [3, 13] | Plant response rating, Foxtail, Giant [3, 14] | Plant response rating, Crabgrass, Large [7, 12] | Crabgrass, Large plant response rating ([7]; Postemergence, 500 g ai/ha) | Plant response rating, Crabgrass, Large [7, 13] | Plant response rating, Crabgrass, Large [7, 14] | Plant response rating, Pigweed [9, 12] | Pigweed plant response rating ([9]; Postemergence, 500 g ai/ha) | Plant response rating, Pigweed [9, 13] | Plant response rating, Pigweed [9, 14] | Plant response rating, Pigweed [10, 18] | Plant response rating, Pigweed [10, 19] | Plant response rating, Pigweed [10, 20] | Plant response rating, Pigweed [10, 21] | Plant response rating, Pigweed [10, 22]
25: Plant response rating, Foxtail, Giant [4, 17] | Plant response rating, Soybean [8, 21] | Plant response rating, Soybean [8, 22]
60: Wheat plant response rating ([1]; Postemergence, 500 g ai/ha)
0: Plant response rating, Nutsedge, Yellow [2, 19] | Plant response rating, Nutsedge, Yellow [2, 20] | Plant response rating, Nutsedge, Yellow [2, 21] | Plant response rating, Nutsedge, Yellow [2, 22]
70: Plant response rating, Oat, Wild ([11]; 250 g ai/ha, scale 0 to 100)
98: Plant response rating, Waterhemp [5, 23] | Plant response rating, Waterhemp [5, 24] | Plant response rating, Waterhemp ([5]; 250 g ai/ha, scale 0 to 100)
10: Plant response rating, Nutsedge, Yellow [2, 16] | Plant response rating, Nutsedge, Yellow [2, 17] | Plant response rating, Nutsedge, Yellow [2, 18] | Plant response rating, Foxtail, Giant [4, 15] | Plant response rating, Soybean [8, 20]
